Reference: US20100247707A1, “DIPEPTIDES AS FEED ADDITIVES” (EVONIK DEGUSSA GmbH, priority 2009, published 2010)

Legend:
[1] = system: digestive enzymes from rainbow trout; experiment: In vitro digestion of non-natural dipeptides LD-I / DL-II with digestive enzymes from rainbow trout; assay type: in vitro ADME, Oncorhynchus mykiss; conditions: for portion of dipeptide cleaved: after 5 hours, in vitro reaction conditions; for speed of cleavage / digestion: non-natural dipeptides
Method: (§1) For this, the enzymes were isolated from the digestive tracts of the fishes and shrimps. The chemically synthesized dipeptides L-EAA-D-Met (LD-I) and D-Met-L-EAA (DL-II) were then reacted with the enzyme solutions obtained. For better comparability of the digestibilities of dipeptides of various species, identical conditions were selected for the in vitro digestion studies (37° C., pH 9). All non-natural dipeptides L-EAA-D-Met (LD-I) and D-Met-L-EAA (DL-II) are cleaved by digestive enzymes of the omnivorous mirror carp (see FIG. 7), of the herbivorous grass carp (see FIG. 8), of the carnivorous rainbow trout (see FIG. 11), of the omnivorous whiteleg shrimp (see FIG. 10) and of the chicken (see FIG. 17). The cleavages of D-Met-L-EAA (DL-II) proceed somewhat more slowly than the cleavages of the analogous L-EAA-D-Met (LD-I) dipeptides. With digestive enzymes of the Tilapia (see FIG. 9), in contrast, D-Met-L-EAA (DL-II) could be cleaved more quickly than L-EAA-D-Met (LD-I) dipeptides. […] After just 5 hours, under in vitro reaction conditions the bulk of the lysine-containing dipeptides had been cleaved by all of the digestive enzymes used.
a) Isolation of the Digestive Enzymes from Rainbow Trout (Oncorhynchus mykiss)
The digestive enzymes were isolated according to the method of EID and MATTY (Aquaculture 1989, 79, 111-119). For this, the intestines were removed from six one-year-old rainbow trout (Oncorhynchus mykiss) and processed as described in Example 18.
(§2) b) Procedure for the In Vitro Digestion Studies
The in vitro investigations were carried out similarly to Example 19 (see Table 6, FIG. 11).

[2] = system: digestive enzymes from whiteleg shrimps; experiment: In vitro digestion of non-natural dipeptides LD-I / DL-II with digestive enzymes from whiteleg shrimps; assay type: in vitro ADME, Litopenaeus vannamei; conditions: whiteleg shrimp enzymes; for portion of dipeptide cleaved: after 5 hours, in vitro reaction conditions; for speed of cleavage / digestion: non-natural dipeptides
Method: as §1
a) Isolation of the Digestive Enzymes from Whiteleg Shrimps (Litopenaeus vannamei)
The digestive enzymes were isolated according to the method of Ezquerra and Garcia-Carreno (J. Food Biochem. 1999, 23, 59-74). For this, the hepatopancreas was removed from five kilograms of whiteleg shrimps (Litopenaeus vannamei) and comminuted in a mixer together with crushed ice. Further processing was carried out similarly to Example 18.
as §2
The in vitro investigations were carried out similarly to Example 19 (see Table 8, FIG. 10).

[3] = system: digestive enzymes of the Tilapia; experiment: In vitro digestion of non-natural dipeptides LD-I / DL-II with digestive enzymes from Tilapia; assay type: in vitro ADME; conditions: for portion of dipeptide cleaved: after 5 hours, in vitro reaction conditions; for speed of cleavage / digestion: non-natural dipeptides
Method: as §1

[4] = system: digestive enzymes of the herbivorous grass carp; experiment: In vitro digestion of non-natural dipeptides LD-I / DL-II with digestive enzymes from grass carp; assay type: in vitro ADME; conditions: for portion of dipeptide cleaved: after 5 hours, in vitro reaction conditions; for speed of cleavage / digestion: non-natural dipeptides
Method: as §1

[5] = system: digestive enzymes from chicken; experiment: In vitro digestion of non-natural dipeptides LD-I / DL-II with digestive enzymes from chicken; assay type: in vitro ADME; conditions: for portion of dipeptide cleaved: after 5 hours, in vitro reaction conditions; for speed of cleavage / digestion: non-natural dipeptides
Method: as §1
a) Isolation of the Digestive Enzymes from Chicken
The digestive enzymes were isolated according to the method of EID and MATTY (Aquaculture 1989, 79, 111-119). For this, the intestines were removed from a chicken and processed as described in Example 24.
as §2
(§3) D-Met-L-EAA (DL-II) or L-EAA-D-Met (LD-I) was taken up in TRIS/HCl buffer solution and the enzyme solution was added. As comparison and to assess the rate of purely chemical cleavage, a blank without enzyme solution was prepared in each case. A sample was taken from time to time and its composition was detected and quantified by means of a calibrated HPLC. The conversion was determined as the quotient of the area of methionine and the area of D-Met-L-EAA (DL-II) or L-EAA-D-Met (LD-I) (see Table 10, FIG. 17).

[6] = system: digestive enzymes from mirror carp; experiment: In vitro digestion of non-natural dipeptides LD-I / DL-II with digestive enzymes from mirror carp; assay type: in vitro ADME, Cyprinus carpio morpha noblis; conditions: for portion of dipeptide cleaved: after 5 hours, in vitro reaction conditions; for speed of cleavage / digestion: non-natural dipeptides
Method: as §1
a) Isolation of the Digestive Enzymes from Mirror Carp (Cyprinus carpio morpha noblis)
The digestive enzymes were isolated according to the method of EID and MATTY (Aquaculture 1989, 79, 111-119). For this, the intestines were removed from five one-year-old mirror carp (Cyprinus carpio morpha noblis) and processed as described in Example 18.
as §2
as §3, with “case (see Table 4).” for “case.”, “(see” for “(see Table 10,”, “7).” for “17).”

ruminants = conditions: in ruminants, WO00/28835; cited from earlier work
Litopenaeus vannamei = conditions: omnivorous shrimps Litopenaeus vannamei, Forster and Dominy 2006; cited from earlier work

Molecule	portion of dipeptide cleaved [1]	speed of cleavage / digestion [1]	portion of dipeptide cleaved [2]	speed of cleavage / digestion [2]	portion of dipeptide cleaved [3]	speed of cleavage / digestion [3]	portion of dipeptide cleaved [4]	speed of cleavage / digestion [4]	portion of dipeptide cleaved [5]	speed of cleavage / digestion [5]	portion of dipeptide cleaved [6]	speed of cleavage / digestion [6]	bioavailability (ruminants)	effectiveness in feeding tests (Litopenaeus vannamei)
CSCC[C@@H](N)C(=O)N[C@@H](CCCCN)C(=O)O.Cl.Cl (racemic) [DL-IIe, D-Met-L-Lys×2HCl]	bulk	particularly quickly	bulk	particularly quickly	bulk	particularly quickly	bulk	particularly quickly	bulk	particularly quickly	bulk	particularly quickly	–	–
CSCCC(O)C(=O)OC(C)C (racemic) [HMBi, racemic iso-propyl ester of MHA]	–	–	–	–	–	–	–	–	–	–	–	–	at least 50%	–
CSCCC(N)C(=O)O (racemic) [DL-methionine]	–	–	–	–	–	–	–	–	–	–	–	–	–	equally as effective as L-methionine
L-Lys-D-Met×2HCl [LD-Ie]	bulk	particularly quickly	bulk	particularly quickly	bulk	particularly quickly	bulk	particularly quickly	bulk	particularly quickly	bulk	particularly quickly	–	–
